Source: PMC4130425, “Therapeutic drug monitoring of voriconazole: a case report of multiple drug interactions in a patient with an increased CYP2C19 activity” (AIDS Research and Therapy, 2014)
Read-outs that look alike come from different tables or passages of the source.

Legend:
CYP2C19 = target: T1, CYP2C19 (Homo sapiens, UniProt P33261); assay: CYP2C19 phenotyping with 2 mg omeprazole (omeprazole metabolic ratio); type: in vivo; settings: while on CYP2C19 inhibitor esomeprazole, cut-off = 5, showed decreased CYP2C19 activity
T1 construct: endogenous in cells; host or cells: patient in vivo (endogenous enzyme)
T1 sequence (P33261 whole entry): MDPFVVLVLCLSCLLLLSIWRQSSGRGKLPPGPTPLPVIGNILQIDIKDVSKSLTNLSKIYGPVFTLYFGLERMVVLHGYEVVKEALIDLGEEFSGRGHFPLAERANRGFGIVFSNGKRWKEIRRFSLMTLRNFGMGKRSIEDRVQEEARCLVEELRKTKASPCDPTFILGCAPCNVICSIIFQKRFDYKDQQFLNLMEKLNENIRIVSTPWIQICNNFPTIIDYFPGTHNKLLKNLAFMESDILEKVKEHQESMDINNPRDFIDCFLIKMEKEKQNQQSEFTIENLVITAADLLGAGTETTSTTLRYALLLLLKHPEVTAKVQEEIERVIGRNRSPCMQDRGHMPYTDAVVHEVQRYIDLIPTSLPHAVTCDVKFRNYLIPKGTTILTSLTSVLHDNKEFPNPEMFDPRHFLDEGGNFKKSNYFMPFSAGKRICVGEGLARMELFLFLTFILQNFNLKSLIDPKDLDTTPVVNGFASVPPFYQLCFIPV

[1] = human, in vivo
Experimental: The patient was genotyped for CYP2C19.
Time course of (A) voriconazole i. v. dosage administration, (B) comedication with esomeprazole or ranitidine and (C) associated antiretroviral therapy. Voriconazole plasma trough concentrations. qd: once a day; b.i.d.: Twice a day.
Ranitidine was replaced by esomeprazole 40 mg IV bid.

[2] = set-up: method as in PMID 22751544; settings: target trough range; cited from earlier work

Row | omeprazole metabolic ratio (CYP2C19) | SMILES | Voriconazole first trough concentration (C0) ([1]; female) [ng/mL] | Voriconazole C0 versus therapeutic range [1] | Voriconazole C0 versus therapeutic range ([1]; 2.5 mg/kg) | Voriconazole C0 therapeutic range [2] [ng/mL]
1 | 10.5 | COc1ccc2[nH]c([S+]([O-])Cc3ncc(C)c(OC)c3C)nc2c1 (centres unmarked) [omeprazole] |  |  |  | 
2 |  | C[C@@H](c1ncncc1F)[C@](O)(Cn1cncn1)c1ccc(F)cc1F [Voriconazole] | < 1000 | below the therapeutic range | within the therapeutic range | 1000 to 5000
